From patent publication US20080161395A1, “Derivatives of Aminobutanoic Acid Inhibiting Cpt” (SIGMA-TAU INDUSTRIE FARMACEUTICHE RIUNITE S.P.A., priority 2005, published 2008)

Assays:
CPT1 liver = target: T1, CPT1 liver (Rattus norvegicus, UniProt P32198); assay: Inhibition of CPT in fresh rat liver mitochondrial preparations; format: biochemical, Fischer rats; conditions: rat liver mitochondria, 50 μM [14C]palmitoyl-CoA, 10 mM L-carnitine, 37° C., 1 minute
T1 construct: fresh mitochondrial preparations obtained from the liver or heart of Fischer rats; from tissue; host or cells: liver mitochondria of Fischer rats
T1 sequence (P32198 1-773): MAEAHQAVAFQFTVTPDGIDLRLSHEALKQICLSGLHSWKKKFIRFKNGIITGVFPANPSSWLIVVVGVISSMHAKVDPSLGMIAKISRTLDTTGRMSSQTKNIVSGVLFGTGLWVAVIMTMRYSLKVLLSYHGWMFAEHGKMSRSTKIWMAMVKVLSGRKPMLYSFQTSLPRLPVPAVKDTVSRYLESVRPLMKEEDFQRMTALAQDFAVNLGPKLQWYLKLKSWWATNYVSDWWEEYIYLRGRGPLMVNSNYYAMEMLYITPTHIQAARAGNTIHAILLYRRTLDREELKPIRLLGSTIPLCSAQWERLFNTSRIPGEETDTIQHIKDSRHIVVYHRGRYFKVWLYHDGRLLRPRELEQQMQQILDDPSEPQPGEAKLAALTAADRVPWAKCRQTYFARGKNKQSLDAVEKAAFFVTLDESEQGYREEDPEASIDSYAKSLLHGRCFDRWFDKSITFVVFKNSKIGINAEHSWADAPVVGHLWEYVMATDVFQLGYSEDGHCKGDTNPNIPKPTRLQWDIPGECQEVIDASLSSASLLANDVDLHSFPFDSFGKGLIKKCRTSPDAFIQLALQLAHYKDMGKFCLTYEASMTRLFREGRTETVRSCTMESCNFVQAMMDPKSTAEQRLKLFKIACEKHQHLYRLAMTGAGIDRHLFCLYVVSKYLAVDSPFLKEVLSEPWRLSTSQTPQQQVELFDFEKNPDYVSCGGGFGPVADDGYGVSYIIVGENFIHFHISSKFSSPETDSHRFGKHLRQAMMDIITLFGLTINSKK
Method: 100 μl of a mitochondrial suspension, containing 50 μM of [^14C] palmitoyl-CoA (spec.act. 10000 dpm/mole) and 10 mM of L-carnitine, are incubated at 37° C. in the presence of stepped concentrations (0-3 mM) of product under examination.
(§1) The IC50 is then determined.

CPT1 heart = target: T2, CPT1 heart (Rattus norvegicus, UniProt Q63704); assay: Inhibition of CPT in fresh rat heart mitochondrial preparations; format: biochemical, Fischer rats; conditions: rat heart mitochondria, 50 μM [14C]palmitoyl-CoA, 10 mM L-carnitine, 37° C., 1 minute
T2 construct: fresh mitochondrial preparations obtained from the liver or heart of Fischer rats; from tissue; host or cells: heart mitochondria of Fischer rats
T2 sequence (Q63704 1-772): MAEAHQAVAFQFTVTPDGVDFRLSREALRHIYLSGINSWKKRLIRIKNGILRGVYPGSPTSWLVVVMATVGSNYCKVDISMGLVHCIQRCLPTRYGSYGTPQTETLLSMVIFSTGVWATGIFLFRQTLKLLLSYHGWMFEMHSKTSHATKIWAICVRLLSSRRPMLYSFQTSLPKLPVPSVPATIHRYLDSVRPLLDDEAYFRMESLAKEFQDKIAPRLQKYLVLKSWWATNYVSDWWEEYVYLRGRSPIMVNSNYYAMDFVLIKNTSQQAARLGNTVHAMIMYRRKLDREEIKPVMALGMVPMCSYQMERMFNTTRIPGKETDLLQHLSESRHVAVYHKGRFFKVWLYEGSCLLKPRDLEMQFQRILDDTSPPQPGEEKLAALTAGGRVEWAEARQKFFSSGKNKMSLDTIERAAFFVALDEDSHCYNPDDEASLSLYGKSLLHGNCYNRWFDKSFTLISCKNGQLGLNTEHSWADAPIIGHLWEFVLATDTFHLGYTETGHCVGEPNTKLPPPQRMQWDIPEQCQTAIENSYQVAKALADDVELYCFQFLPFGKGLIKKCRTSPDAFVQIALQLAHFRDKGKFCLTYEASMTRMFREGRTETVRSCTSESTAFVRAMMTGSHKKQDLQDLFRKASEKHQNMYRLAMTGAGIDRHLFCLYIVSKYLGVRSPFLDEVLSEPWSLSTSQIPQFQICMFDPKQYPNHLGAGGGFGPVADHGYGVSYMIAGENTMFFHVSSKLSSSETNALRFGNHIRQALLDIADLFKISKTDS
Method: The inhibition of CPT was evaluated on fresh mitochondrial preparations obtained from the liver or heart of Fischer rats, fed normally; the mitochondria taken from the liver or heart are suspended in a 75 mM sucrose buffer, EGTA 1 mM, pH 7.5. 100 μl of a mitochondrial suspension, containing 50 μM of [^14C] palmitoyl-CoA (spec.act. 10000 dpm/mole) and 10 mM of L-carnitine, are incubated at 37° C. in the presence of stepped concentrations (0-3 mM) of product under examination.
as §1

[1] = system: CPT-1 in the hypothalamus; conditions: intracerebroventricular (icv) administration; Nature Medicine, 2003, 9(6), 756-761; cited from earlier work

| Compound | IC50 (CPT1 liver) [µM] | IC50 (CPT1 heart) [µM] | food intake and gluconeogenesis [1] |
| --- | --- | --- | --- |
| CCCCCCCCCCCCCCNC(=O)N[C@H](CC(=O)O)CN(C)C [ST2837, (R)-4-(dimethylamino)-3-(tetradecylcarbamoyl)-amino-butyric Acid] | 5.7 | 70 |  |
| CCCCCCCCCCCCCCNC(=O)N[C@H](CC(=O)[O-])C[N+](C)(C)C [ST1326, R-4-trimethyl ammonium-3-(tetradecylcarbamoyl)-aminobutyrate] | 0.36 | 48.8 | significantly and consistently reducing |
